Broadly, the pIC50 is the IC50 on a negative log10 scale, so that one unit is a factor of ten. The low end stands for a high IC50, the high end for a low IC50.

1 compound from article PMC10536391, “Inhibition of the hERG Potassium Channel by a Methanesulphonate-Free E-4031 Analogue” (Pharmaceuticals, 2023) can be followed below.

Each structure is given as a SMILES string. pIC50: −log10 of the molar value.

Type in all cases: cell-based
Data set [1] has as its target T1, hERG potassium channel (human Ether-à-go-go Related Gene) (Homo sapiens, UniProt Q12809, N588K).
T1 construct: gene KCNH2; N588K hERG transiently expressed in HEK 293 cells
Nature of the data set: whole-cell patch-clamp, single concentration […]. To be noted: read-out: % of control tail current at 300 nM. (The patch-clamp technique gives a direct electrical read-out from membranes.)

The target in data set [2] is T2, hERG potassium channel (human Ether-à-go-go Related Gene) (Homo sapiens, UniProt Q12809, F557L).
T2 construct: gene KCNH2; F557L hERG transiently expressed in HEK 293 cells
As to the kind of experiment: whole-cell patch-clamp, single concentration […]. To be noted: read-out: % of control tail current at 300 nM.

For data set [3], the target named is T3, hERG potassium channel (human Ether-à-go-go Related Gene) (Homo sapiens, UniProt Q12809, T623A).
T3 construct: gene KCNH2; T623A hERG transiently expressed in HEK 293 cells
As to the kind of experiment: whole-cell patch-clamp, inward tail current in […] K+, […]. To be noted: read-out: % of control tail current at 300 nM.

For data set [4], the target named is T4, hERG potassium channel (human Ether-à-go-go Related Gene) (Homo sapiens, UniProt Q12809, S624A).
T4 construct: gene KCNH2; S624A hERG transiently expressed in HEK 293 cells
Nature of the data set: whole-cell patch-clamp, single concentration […]. To be noted: read-out: % of control tail current at 300 nM.

Data set [5] addresses T5, hERG potassium channel (human Ether-à-go-go Related Gene) (Homo sapiens, UniProt Q12809).
T5 construct: gene KCNH2; wild-type hERG stably expressed in HEK 293 cells
Nature of the data set: whole-cell patch-clamp, hERG tail current, […] °C.

Consider `Cc1ccc(C(=O)C2CCN(CCc3ccccc3)CC2)cc1` [E-4031-17], for which the activity at 0.3 µM in data set [1] was found to be 43.2%; in data set [2], 57.9%; in data set [3], 69.7%; in data set [4], 57.2%. For the same compound, the pIC50 in data set [5] is 7.39.
